Source: ChEMBL document CHEMBL4406836, “The design of a cell-selective fowlicidin-1-derived peptide with both antimicrobial and anti-inflammatory activities” (Eur J Med Chem, 2019)
Values after ≈ are worked out from the molar mass of the structure shown. Active and inactive are the calls of the source. No cut-off for these calls is given here.

Key:
Pseudomonas aeruginosa [1] = assay: Antibacterial activity against multidrug-resistant Pseudomonas aeruginosa CCARM 2095 assessed as reduction in bacterial growth at 4 uM incubated for 72 hrs in presence of chloramphenicol by spectrophotometry; assay type: functional; conditions: CCARM 2095, 72 h
Pseudomonas aeruginosa [2] = assay: Antibacterial activity against multidrug-resistant Pseudomonas aeruginosa CCARM 2095 assessed as reduction in bacterial growth at 4 uM incubated for 72 hrs in presence of ciprofloxacin by spectrophotometry; assay type: functional; conditions: CCARM 2095, 72 h
Pseudomonas aeruginosa [3] = assay: Antibacterial activity against multidrug-resistant Pseudomonas aeruginosa CCARM 2095 assessed as reduction in bacterial growth at 4 uM incubated for 72 hrs in presence of oxacillin by spectrophotometry; assay type: functional; conditions: CCARM 2095, 72 h
Staphylococcus aureus [4] = assay type: functional; conditions: CCARM 3089, 72 h
Staphylococcus aureus [5] = assay: Antibacterial activity against methicillin-resistant Staphylococcus aureus CCARM 3089 assessed as reduction in bacterial growth at 8 uM incubated for 72 hrs in presence of chloramphenicol by spectrophotometry; assay type: functional; conditions: CCARM 3089, 72 h
Staphylococcus aureus [6] = assay: Antibacterial activity against methicillin-resistant Staphylococcus aureus CCARM 3089 assessed as reduction in bacterial growth at 8 uM incubated for 72 hrs in presence of ciprofloxacin by spectrophotometry; assay type: functional; conditions: CCARM 3089, 72 h
Staphylococcus aureus [7] = assay: Fractional inhibitory concentration, ratio of MIC of compound in presence of […] uM oxacillin to MIC of oxacillin for antibacterial activity against methicillin-resistant Staphylococcus aureus CCARM 3089; assay type: functional
Pseudomonas aeruginosa [8] = assay: Fractional inhibitory concentration index, sum of ratio of MIC of compound in presence of […] uM chloramphenicol to MIC of chloramphenicol and ratio of MIC of compound in presence of chloramphenicol to MIC of compound for antibacterial activity against multidrug-resistant Pseudomonas aeruginosa CCARM 2095; assay type: functional
Staphylococcus aureus [9] = assay: Potentiation of ciprofloxacin-induced antibacterial activity against methicillin-resistant Staphylococcus aureus CCARM 3089 assessed as reduction in ciprofloxacin MIC at 1/16th MIC incubated for 72 hrs by spectrophotometry; assay type: functional
Escherichia coli [10] = assay: Induction of membrane integrity disruption in Escherichia coli at 2 times of MIC by propidium iodide staining based flow cytometry relative to control (reference value: 2.97 %); assay type: functional
Bacillus subtilis = assay: Antibacterial activity against Bacillus subtilis KCTC 3068 assessed as reduction in bacterial growth incubated for 18 hrs by spectrophotometry based microtiter broth dilution method; assay type: functional; conditions: KCTC 3068, 18 h
Staphylococcus aureus [11] = assay: Antibacterial activity against Staphylococcus aureus KCTC 1621 assessed as reduction in bacterial growth incubated for 18 hrs by spectrophotometry based microtiter broth dilution method; assay type: functional; conditions: KCTC 1621, 18 h
[12] = Therapeutic index, ratio of MHC10 for hemolytic activity in sheep RBC assessed as minimal hemolytic concentration causing 10% hemolysis to MIC for antibacterial activity; assay type: toxicity; conditions: sheep red blood cells
RAW264.7 [13] = assay: Cytotoxicity against mouse RAW264.7 cells assessed as reduction in cell viability at upto 16 uM incubated for 48 hrs by MTT assay; assay type: cell-based; conditions: raw264.7, 48 h
RAW264.7 [14] = assay: Antiinflammatory activity in mouse RAW264.7 cells assessed as reduction in LPS-induced NO production at 4 uM incubated for 24 hrs by Griess reagent based assay relative to control; assay type: functional; conditions: RAW264.7, 24 h
RAW264.7 [15] = assay: Antiinflammatory activity in mouse RAW264.7 cells assessed as reduction in LPS-induced TNFalpha release at 8 uM preincubated for 1 hr followed by LPS-challenge and measured after 6 hrs by ELISA relative to control; assay type: functional
RAW264.7 [16] = assay: Antiinflammatory activity in mouse RAW264.7 cells assessed as reduction in LPS-induced NO production at 10 uM incubated for 48 hrs by Griess reagent based assay; assay type: functional, cell-based
Staphylococcus aureus [17] = assay: Potency index, ratio of MIC of LL-37 to MIC of compound for antibacterial activity against methicillin-resistant Staphylococcus aureus CCARM 3089 assessed as reduction in bacterial growth incubated for 18 hrs by spectrophotometry based microtiter broth dilution method; assay type: functional
Staphylococcus aureus [18] = assay: Potency index, ratio of MIC of LL-37 to MIC of compound for antibacterial activity against methicillin-resistant Staphylococcus aureus CCARM 3090 assessed as reduction in bacterial growth incubated for 18 hrs by spectrophotometry based microtiter broth dilution method; assay type: functional
Pseudomonas aeruginosa [19] = assay: Potency index, ratio of MIC of LL-37 to MIC of compound for antibacterial activity against multidrug-resistant Pseudomonas aeruginosa CCARM 2095 assessed as reduction in bacterial growth incubated for 18 hrs by spectrophotometry based microtiter broth dilution method; assay type: functional
Staphylococcus aureus [20] = assay: Potency index, ratio of MIC of melittin to MIC of compound for antibacterial activity against methicillin-resistant Staphylococcus aureus CCARM 3089 assessed as reduction in bacterial growth incubated for 18 hrs by spectrophotometry based microtiter broth dilution method; assay type: functional
Staphylococcus aureus [21] = assay: Potency index, ratio of MIC of melittin to MIC of compound for antibacterial activity against methicillin-resistant Staphylococcus aureus CCARM 3090 assessed as reduction in bacterial growth incubated for 18 hrs by spectrophotometry based microtiter broth dilution method; assay type: functional
Pseudomonas aeruginosa [22] = assay: Potency index, ratio of MIC of melittin to MIC of compound for antibacterial activity against multidrug-resistant Pseudomonas aeruginosa CCARM 2095 assessed as reduction in bacterial growth incubated for 18 hrs by spectrophotometry based microtiter broth dilution method; assay type: functional
Pseudomonas aeruginosa [23] = assay: Potency index, ratio of MIC of melittin to MIC of compound for antibacterial activity against multidrug-resistant Pseudomonas aeruginosa CCARM 2109 assessed as reduction in bacterial growth incubated for 18 hrs by spectrophotometry based microtiter broth dilution method; assay type: functional
Escherichia coli [24] = assay: Antibacterial activity against Escherichia coli KCTC 1682 assessed as reduction in bacterial growth incubated for 18 hrs in presence of 150 mM NaCl by spectrophotometry based microtiter broth dilution method; assay type: functional; conditions: KCTC 1682, 18 h
Escherichia coli [25] = assay: Antibacterial activity against Escherichia coli KCTC 1682 assessed as reduction in bacterial growth incubated for 18 hrs in presence of 4.5 mM KCl by spectrophotometry based microtiter broth dilution method; assay type: functional; conditions: KCTC 1682, 18 h
Escherichia coli [26] = assay: Antibacterial activity against Escherichia coli KCTC 1682 assessed as reduction in bacterial growth incubated for 18 hrs in presence of 1 mM MgCl2 by spectrophotometry based microtiter broth dilution method; assay type: functional; conditions: KCTC 1682, 18 h
Escherichia coli [27] = assay: Antibacterial activity against Escherichia coli KCTC 1682 assessed as reduction in bacterial growth incubated for 18 hrs in presence of 4 uM FeCl3 by spectrophotometry based microtiter broth dilution method; assay type: functional; conditions: KCTC 1682, 18 h
Staphylococcus aureus [28] = assay: Antibacterial activity against Staphylococcus aureus KCTC 1621 assessed as reduction in bacterial growth incubated for 18 hrs in presence of 4.5 mM KCl by spectrophotometry based microtiter broth dilution method; assay type: functional; conditions: KCTC 1621, 18 h
Staphylococcus aureus [29] = assay: Antibacterial activity against Staphylococcus aureus KCTC 1621 assessed as reduction in bacterial growth incubated for 18 hrs in presence of 6 uM NH4Cl by spectrophotometry based microtiter broth dilution method; assay type: functional; conditions: KCTC 1621, 18 h
Staphylococcus aureus [30] = assay: Antibacterial activity against Staphylococcus aureus KCTC 1621 assessed as reduction in bacterial growth incubated for 18 hrs in presence of 1 mM MgCl2 by spectrophotometry based microtiter broth dilution method; assay type: functional; conditions: KCTC 1621, 18 h
Staphylococcus aureus [31] = assay: Antibacterial activity against Staphylococcus aureus KCTC 1621 assessed as reduction in bacterial growth incubated for 18 hrs in presence of […] by spectrophotometry based microtiter broth dilution method; assay type: functional; conditions: KCTC 1621, 18 h
Staphylococcus aureus [32] = assay: Antibacterial activity against methicillin-resistant Staphylococcus aureus CCARM 3089 assessed as reduction in bacterial growth at 4 uM incubated for 72 hrs in presence of chloramphenicol by spectrophotometry; assay type: functional; conditions: CCARM 3089, 72 h

CC[C@H](C)[C@H](NC(=O)[C@H](CCCCN)NC(=O)[C@H](CCC(=O)O)NC(=O)[C@H](CCCCN)NC(=O)[C@H](CO)NC(=O)[C@H](CCCCN)NC(=O)[C@H](CCCNC(=N)N)NC(=O)[C@H](Cc1ccccc1)NC(=O)[C@H](Cc1ccccc1)NC(=O)[C@H](CC(=O)O)NC(=O)CNC(=O)[C@H](CC(C)C)NC(=O)[C@@H](N)CC(C)C)C(=O)NCC(=O)N[C@@H](CCCCN)C(=O)N[C@@H](CCC(=O)O)C(=O)N[C@@H](Cc1ccccc1)C(=O)N[C@@H](CCCCN)C(=O)N[C@@H](CCCNC(=N)N)C(=O)N[C@H](C(=O)N[C@H](C(=O)N[C@@H](CCC(N)=O)C(=O)N[C@@H](CCCNC(=N)N)C(=O)N[C@H](C(=O)N[C@@H](CCCCN)C(=O)N[C@@H](CC(=O)O)C(=O)N[C@@H](Cc1ccccc1)C(=O)N[C@@H](CC(C)C)C(=O)N[C@@H](CCCNC(=N)N)C(=O)N[C@@H](CC(N)=O)C(=O)N[C@@H](CC(C)C)C(=O)N[C@H](C(=O)N1CCC[C@H]1C(=O)N[C@@H](CCCNC(=N)N)C(=O)N[C@H](C(=O)N[C@@H](CCC(=O)O)C(=O)N[C@@H](CO)C(=O)O)[C@@H](C)O)C(C)C)[C@@H](C)CC)C(C)C)[C@@H](C)CC [CATHELICIDIN]
MIC (Pseudomonas aeruginosa [1]): 2 µM | MIC (Pseudomonas aeruginosa [2]): 2 µM | MIC (Pseudomonas aeruginosa [3]): 4 µM | MIC (Staphylococcus aureus [4]): 256 µM (≈ 1150 µg/mL) | MIC (Staphylococcus aureus [5]): 4 µM | MIC (Staphylococcus aureus [6]): 8 µM | FIC (Staphylococcus aureus [7]): 0.5 | fractional inhibitory concentration index (FICI) (Pseudomonas aeruginosa [8]): 0.75 | fold change (FC) (Staphylococcus aureus [9]): 2 - 16 | Activity (Escherichia coli [10]): 55.5%

H-LVIRWVRAGYKLYRAIKKK-NH2
MIC (Bacillus subtilis): 2 µM | MIC (Staphylococcus aureus [11]): 2 µM | selectivity ratio [12]: 28.4 | Activity (RAW264.7 [13]): Non-Toxic | inhibition at 4 µM (RAW264.7 [14]): 94.2% | inhibition at 8 µM (RAW264.7 [15]): 75.2% | Activity (RAW264.7 [16]): Active | Ratio (Staphylococcus aureus [17]): 2 - 8 | Ratio (Staphylococcus aureus [18]): 2 - 8 | Ratio (Pseudomonas aeruginosa [19]): 2 - 8 | Ratio (Staphylococcus aureus [20]): 2 - 8 | Ratio (Staphylococcus aureus [21]): 2 - 8 | Ratio (Pseudomonas aeruginosa [22]): 2 - 8 | Ratio (Pseudomonas aeruginosa [23]): 2 - 8 | MIC (Escherichia coli [24]): 4 µM | MIC (Escherichia coli [25]): 4 µM | MIC (Escherichia coli [26]): 4 µM | MIC (Escherichia coli [27]): 4 µM | MIC (Staphylococcus aureus [28]): 2 µM | MIC (Staphylococcus aureus [29]): 2 µM | MIC (Staphylococcus aureus [30]): 4 µM | MIC (Staphylococcus aureus [31]): 4 µM | MIC (Staphylococcus aureus [4]): 128 µM | MIC (Staphylococcus aureus [32]): 0.5 µM | FIC (Staphylococcus aureus [7]): 0.25 | fractional inhibitory concentration index (FICI) (Pseudomonas aeruginosa [8]): 0.281 | fold change (FC) (Staphylococcus aureus [9]): 4 - 32 | Activity (Escherichia coli [10]): 68.98%
